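96-well plates; 48 h exposure; 5 concentrations. Endpoints by linear interpolation between flanking doses. Not reached: highest tested concentration assigned. GI50: concentration for 50% inhibition of growth. Definition used: TGI = concentration required for complete inhibition of growth.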
Assays:
Assay in all cases: NCI tumour cell line growth inhibition, 48 h
[1] = tested on: 786-0 renal
[2] = tested on: NCI-H460 lung
[3] = tested on: UACC-257 melanoma
[4] = tested on: SF-295 CNS
[5] = tested on: SNB-19 CNS
[6] = tested on: SF-539 CNS
[7] = tested on: HOP-92 NSCLC
[8] = tested on: U251 CNS
[9] = tested on: MOLT-4 leukemia
[10] = tested on: UO-31 renal

| SMILES | TGI [1] [µM] | TGI [2] [µM] | TGI [3] [µM] | TGI [4] [µM] | TGI [5] [µM] | TGI [6] [µM] | TGI [7] [µM] | TGI [8] [µM] | TGI [9] [µM] | TGI [10] [µM] | GI50 [1] [µM] | GI50 [2] [µM] | GI50 [3] [µM] | GI50 [4] [µM] | GI50 [5] [µM] | GI50 [7] [µM] | GI50 [8] [µM] | GI50 [9] [µM] | GI50 [10] [µM] | GI50 [6] [µM] |
| --- | --- | --- | --- | --- | --- | --- | --- | --- | --- | --- | --- | --- | --- | --- | --- | --- | --- | --- | --- | --- |
| N#C/C(=C1\SC(N=Nc2ccccc2)C(=O)N1c1ccccc1)c1nc2ccccc2[nH]1 (centres undefined) | > 100 | > 100 | > 100 | > 100 | > 100 | 64.4 | > 100 | > 100 | > 100 | > 100 |  |  |  |  |  |  |  |  |  |  |
| O=c1c2cccc3cccc(c4n1CCN=4)c32 | > 100 | > 100 | > 100 | > 100 |  | > 100 | > 100 | > 100 | > 100 | > 100 |  |  |  |  |  |  |  |  |  |  |
| COc1ccc(OC)c(-c2cc(-c3ccc(Cl)cc3)nn2-c2ccc(S(=O)(=O)NC(C)=O)cc2)c1 | 12.1 | > 100 | 34.2 | > 100 | 28.7 |  | 33.2 | 10.3 | 27.8 | > 100 | 3.03 | 29.3 | 16.8 | 42.8 | 10.6 | 10.2 | 2.9 | 5.62 | 34.8 |  |
| COc1cc(-c2nc(-c3nc4ccccc4[nH]3)cc3c2[nH]c2ccccc23)cc(OC)c1OC | > 100 | > 100 | > 100 |  | > 100 | > 100 | 5.38 | > 100 | > 100 | > 100 | 50.7 | 3.96 | 3.57 |  | 9.45 | 0.526 | 4.76 | 3.93 | 3.62 | 23.1 |
| O=S1Nc2c(Cl)cc(Cl)c3c(Cl)cc(Cl)c(c23)N1 | 41.9 |  | > 100 | > 100 | > 100 | > 100 | 51 | 69.6 | > 100 | > 100 |  |  |  |  |  |  |  |  |  |  |
| Cc1cc(N(CCC#N)S(C)(=O)=O)ccc1C=Nc1ccc(C(=O)NN2C(=O)/C(=C/c3ccc(N(CCC#N)CCC#N)cc3C)N=C2c2cc([N+](=O)[O-])ccc2Cl)cc1 | > 100 | > 100 | > 100 |  | > 100 | > 100 | > 100 | > 100 |  | > 100 |  |  |  |  |  |  |  |  |  |  |
| O=C(OCc1ncc(-c2ccc(C(F)(F)F)cc2)c(NC2CCCCCC2)n1)c1c(F)c(F)c(F)c(F)c1F | 27.2 | 40.1 | 35 | 33.8 | 27.7 | 30.7 |  |  | 11.8 | 21.3 | 11.4 | 17.3 | 17.5 | 17.4 | 14.1 |  |  | 3.42 | 8.12 | 16.3 |
| OCC(O)c1nc2ccc3[nH]ncc3c2c2c1CCCC2 (centres undefined) | > 50 | 5.43 | > 50 | > 50 | > 50 | 2.4 |  | > 50 | > 50 | > 50 | 1.77 | 1.49 | 1.8 | 1.62 | 1.58 |  | 1.65 | 1.56 | 1.55 | 0.957 |
| CCOC(=N)CC(=O)c1ccccc1 | > 100 |  | > 100 | > 100 | > 100 | > 100 | > 100 | > 100 | > 100 | > 100 |  |  |  |  |  |  |  |  |  |  |
| SCCSCCCSCCS | > 100 | > 100 | > 100 | > 100 | > 100 | > 100 |  | > 100 | 31.2 | > 100 |  |  |  |  |  |  |  |  |  |  |
| CCOC(=O)C(C)(C)Oc1ccc(/C=C/C(=O)c2ccc(Cl)cc2)cc1 | 30.9 | > 100 | 41.4 | 41.2 | 37.7 | 34 |  | 31.9 | 76.8 | > 100 |  |  |  |  |  |  |  |  |  |  |
| COc1ccc(/C=N\Nc2ccc([N+](=O)[O-])cn2)cc1OC | > 100 |  | > 100 | > 100 | > 100 | 23.4 |  | 74.2 | > 100 | > 100 | 3.46 |  | > 100 | > 100 | 27 |  | 3.56 | > 100 | 3.14 | 4.37 |
| COC(=O)C(Cc1nc2ccccc2[nH]c1=O)C(=O)C(=O)Nc1ccc([N+](=O)[O-])cc1[N+](=O)[O-] (centres undefined) | 32 | 49.2 | 36.9 | 49.9 | > 100 | 38.5 |  | 32.5 | 59.1 | 43.6 |  |  |  |  |  |  |  |  |  |  |
| O=[N+]([O-])C1Cc2ccccc2OC1c1ccccc1 (centres undefined) | > 100 |  | > 100 | > 100 | > 100 | 89.2 | > 100 | > 100 | 70.7 | > 100 |  |  |  |  |  |  |  |  |  |  |
| CCOc1cccc2ccc[n+](CC)c12 | > 100 | > 100 | > 100 | > 100 | > 100 | > 100 | > 100 |  | > 100 | > 100 |  |  |  |  |  |  |  |  |  |  |
| CC(=O)[CH-]C(=O)c1ccccc1.CC(=O)[CH-]C(=O)c1ccccc1.CCOCC[O-].CCOCC[O-].[Ti+4] | 74.2 | 43.4 | > 100 | 33.9 | 38.6 | 50.4 |  | 42.2 | 56.5 | 49.5 | 21.2 | 18.8 | 33.8 | 17.5 | 18.1 |  | 16 | 10.4 | 17.6 | 19.1 |
| COc1ccc2c(c1)CC[C@H](O)/C2=C/c1cc(OC)c(OC)c(OC)c1 | > 100 | > 36.8 |  |  | > 100 | 0.43 | > 100 | > 100 | > 100 | > 100 | 0.156 | 0.107 |  |  | 0.201 | 16.3 | 0.143 | 0.351 | 0.222 | 0.0722 |
| CC(C)(C)C(=O)OC12/C(=N/O)CCCCCC1c1ccccc12 (centres undefined) | 31 | 32.3 | 28.5 | 29.2 | 31.1 | 39 |  | 33.1 | 34.4 | 31.7 |  |  |  |  |  |  |  |  |  |  |

— PubChem BioAssay (NCI)
